Tests used:
Test in all cases: Cysteine reactivity ABPP
Assay type in all cases: binding
[1] = target: T1, JAK1 Tyrosine-protein kinase JAK1 C810, C817 (P23458) (Homo sapiens, UniProt P23458)
T1 construct: endogenous in cells; host or cells: primary human T cells
Protocol: (§1) Activated or expanded primary human T cells were re-suspended in RPMI (1×10^6 cells/mL) containing 10% fetal bovine serum (FBS), penicillin (100 U/mL), streptomycin ([…]), and L-glutamine (2 mM). The cells were treated with DMSO or compounds for 3 h, pelleted (524 g, 5 min), washed with PBS, and lysed by sonication (2×8 pulses). Soluble and particulate proteomic fractions were separated by ultracentrifugation (100,000 g, 45 min), and protein concentration was normalized to 1.7 mg/mL using a standard DC protein assay (Bio-Rad). The resulting proteomes were analyzed by competitive isotopic Tandem Orthogonal Proteolysis Activity-Based Protein Profiling (isoTOP-ABPP).
(§2) The heavy/light isoTOP-ABPP ratios (R values) for each unique peptide (DMSO/compound treated) were quantified with in-house CIMAGE software (Weerapana et al., 2010) using default parameters (3 MS1 acquisitions per peak and signal to noise threshold set to 2.5). Site-specific engagement of cysteine residues was assessed by blockade of IA-alkyne probe labeling. […] Ratios for unique peptide sequences were calculated for each experiment; overlapping peptides with the same modified cysteine (e.g., different charge states, elution times or tryptic termini) were grouped together and the median ratio was reported as the final ratio (R). Additionally, ratios for peptide sequences containing multiple cysteines were grouped together. When aggregating data across experimental replicates, the mean of each experimental median R was reported. The peptide ratios reported by CIMAGE were further filtered to ensure the removal or correction of low-quality ratios in each individual dataset. The quality filters applied were the following: removal of half-tryptic peptides, removal of peptides with more than one tryptic miscleaved, removal of peptides with R=20 and only a single MS2 event triggered during the elution of the parent ion, removal of non-unique peptides. Further filtering was then performed as described below for each experiment type.
(§3) Samples (500 μL, 1.7 mg/mL) were treated with iodoacetamide desthiobiotin (IA-DTB, 5 μL of 10 mM stock in DMSO, final concentration: 100 μM) for 1 h at ambient temperature. Ice-cold MeOH (500 μL) and CHCl3 (200 μL) were then added, the mixture was vortexed and centrifuged (10,000 g, 10 min, 4° C.) to afford a protein disc at the interface of CHCl3 and aqueous layers. Both layers were aspirated without perturbing the disk, which was re-suspended in cold methanol (500 μL) and CHCl3 (200 μL) by sonication. The proteins were pelleted (10,000 g, 10 min, 4° C.), and the resulting pellets were re-suspended in a buffer (90 μL) containing 9M urea, 10 mM DTT and 50 mM triethylammonium bicarbonate ( 1/20 dilution of 1.0 M stock solution, pH 8.5) by thorough pipetting up and down. The resulting mixture was heated at 65° C. for 20 min. Sample was cooled to room temp, iodoacetamide (10 μL, 500 mM solution in H2O) was added, and the samples were incubated at 37° C. for 30 min with shaking.
(§4) At individual TMT experiment level, the following filters were applied to remove low-quality peptides: removal of non-unique peptides; removal of half-tryptic peptides; removal of peptides with more than one internal miscleaved site; removal of peptides with low (<10,000) sum of reporter ion intensities for control channels, and peptides with high variation between the replicate control channels (coefficient of variance >0.5). R values (compound-treated vs. DMSO-treated) for each peptide entry were calculated using the reporter ion intensities of DMSO and compound treated TMT channels for each treatment group with a maximum ratio cap of 20. […]

[2] = target: T2, MAPK9 Mitogen-activated protein kinase 9 C177 (P45984) (Homo sapiens, UniProt P45984); conditions: 100
T2 construct: endogenous in cells; host or cells: primary human T cells
Protocol: as §1, §2, §3, §4

[3] = target: T3, PELP1 Proline-, glutamic acid- and leucine-rich protein 1 C71 (Q8IZL8) (Homo sapiens, UniProt Q8IZL8)
T3 construct: endogenous in cells; host or cells: primary human T cells
T3 sequence (Q8IZL8 whole entry, one chain of several): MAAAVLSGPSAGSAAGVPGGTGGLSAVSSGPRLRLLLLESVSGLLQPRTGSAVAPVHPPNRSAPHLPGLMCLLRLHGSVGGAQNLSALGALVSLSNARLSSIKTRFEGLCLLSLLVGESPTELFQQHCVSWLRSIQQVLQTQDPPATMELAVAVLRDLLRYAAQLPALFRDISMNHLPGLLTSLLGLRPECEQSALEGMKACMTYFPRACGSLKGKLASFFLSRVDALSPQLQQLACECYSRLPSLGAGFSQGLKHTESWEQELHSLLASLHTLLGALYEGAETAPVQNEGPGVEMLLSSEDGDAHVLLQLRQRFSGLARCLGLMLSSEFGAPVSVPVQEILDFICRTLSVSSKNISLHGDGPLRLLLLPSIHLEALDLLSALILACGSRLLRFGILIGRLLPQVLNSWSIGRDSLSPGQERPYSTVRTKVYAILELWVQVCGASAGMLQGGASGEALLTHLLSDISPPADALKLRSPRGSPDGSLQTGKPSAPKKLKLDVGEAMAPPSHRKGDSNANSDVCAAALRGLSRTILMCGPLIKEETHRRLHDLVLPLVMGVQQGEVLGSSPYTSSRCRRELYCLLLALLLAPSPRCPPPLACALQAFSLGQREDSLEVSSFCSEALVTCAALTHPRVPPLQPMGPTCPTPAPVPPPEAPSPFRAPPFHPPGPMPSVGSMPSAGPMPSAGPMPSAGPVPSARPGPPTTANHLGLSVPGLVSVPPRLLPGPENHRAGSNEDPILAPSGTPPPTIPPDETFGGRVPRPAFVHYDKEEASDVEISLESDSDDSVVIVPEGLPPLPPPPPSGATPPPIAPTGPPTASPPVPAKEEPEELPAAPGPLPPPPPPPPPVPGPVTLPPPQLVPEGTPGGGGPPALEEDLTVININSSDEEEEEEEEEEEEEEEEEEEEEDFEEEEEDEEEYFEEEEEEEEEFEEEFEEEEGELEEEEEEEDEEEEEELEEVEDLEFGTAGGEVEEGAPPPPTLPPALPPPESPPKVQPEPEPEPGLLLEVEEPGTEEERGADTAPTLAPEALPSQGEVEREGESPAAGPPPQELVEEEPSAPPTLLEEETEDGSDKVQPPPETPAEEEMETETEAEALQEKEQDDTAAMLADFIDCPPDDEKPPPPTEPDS
Protocol: as §1, §2, §3, §4

[4] = target: T4, PFKFB3 6-phosphofructo-2-kinase/fructose-2,6-bisphosphatase 3 C155 (Q16875) (Homo sapiens, UniProt Q16875)
T4 construct: endogenous in cells; host or cells: primary human T cells
T4 sequence (Q16875 whole entry, one chain of several): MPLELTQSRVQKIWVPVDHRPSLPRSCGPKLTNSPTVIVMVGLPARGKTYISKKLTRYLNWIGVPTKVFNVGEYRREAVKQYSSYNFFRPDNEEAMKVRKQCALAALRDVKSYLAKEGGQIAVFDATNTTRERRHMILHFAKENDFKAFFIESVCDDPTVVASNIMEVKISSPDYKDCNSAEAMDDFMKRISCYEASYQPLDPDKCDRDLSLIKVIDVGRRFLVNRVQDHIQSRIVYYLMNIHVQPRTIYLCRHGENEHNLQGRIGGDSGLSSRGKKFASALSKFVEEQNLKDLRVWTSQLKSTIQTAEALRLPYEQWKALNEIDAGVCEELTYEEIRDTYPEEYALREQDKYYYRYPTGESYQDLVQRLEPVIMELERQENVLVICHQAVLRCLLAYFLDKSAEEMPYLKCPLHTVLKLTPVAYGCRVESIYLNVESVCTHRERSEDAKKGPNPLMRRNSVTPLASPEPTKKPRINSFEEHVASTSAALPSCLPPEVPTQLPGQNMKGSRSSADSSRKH
Protocol: as §1, §2, §3, §4

[5] = target: T5, PTPN11 Tyrosine-protein phosphatase non-receptor type 11 C259 (Q06124) (Homo sapiens, UniProt Q06124)
T5 construct: endogenous in cells; host or cells: primary human T cells
T5 sequence (Q06124 1-593): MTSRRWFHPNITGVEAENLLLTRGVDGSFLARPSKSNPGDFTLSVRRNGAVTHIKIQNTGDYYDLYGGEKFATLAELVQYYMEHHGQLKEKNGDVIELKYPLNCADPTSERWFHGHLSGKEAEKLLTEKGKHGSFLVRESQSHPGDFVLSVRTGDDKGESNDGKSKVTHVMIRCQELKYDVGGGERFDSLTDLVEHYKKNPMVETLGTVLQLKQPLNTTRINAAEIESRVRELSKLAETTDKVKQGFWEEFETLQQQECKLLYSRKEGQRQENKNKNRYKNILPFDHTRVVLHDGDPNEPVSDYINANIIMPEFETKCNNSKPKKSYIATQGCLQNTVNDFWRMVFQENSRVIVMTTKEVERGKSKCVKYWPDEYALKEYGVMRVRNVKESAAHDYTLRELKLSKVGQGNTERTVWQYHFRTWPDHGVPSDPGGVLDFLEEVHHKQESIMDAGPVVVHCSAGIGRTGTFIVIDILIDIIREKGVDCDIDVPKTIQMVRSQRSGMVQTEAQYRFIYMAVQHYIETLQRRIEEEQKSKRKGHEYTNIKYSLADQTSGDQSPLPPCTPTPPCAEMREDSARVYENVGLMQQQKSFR
Protocol: as §1, §2, §3, §4

[6] = target: T6, STAT3 Signal transducer and activator of transcription 3 C259 (P40763) (Homo sapiens, UniProt P40763)
T6 construct: endogenous in cells; host or cells: primary human T cells
T6 sequence (P40763 whole entry, one chain of several): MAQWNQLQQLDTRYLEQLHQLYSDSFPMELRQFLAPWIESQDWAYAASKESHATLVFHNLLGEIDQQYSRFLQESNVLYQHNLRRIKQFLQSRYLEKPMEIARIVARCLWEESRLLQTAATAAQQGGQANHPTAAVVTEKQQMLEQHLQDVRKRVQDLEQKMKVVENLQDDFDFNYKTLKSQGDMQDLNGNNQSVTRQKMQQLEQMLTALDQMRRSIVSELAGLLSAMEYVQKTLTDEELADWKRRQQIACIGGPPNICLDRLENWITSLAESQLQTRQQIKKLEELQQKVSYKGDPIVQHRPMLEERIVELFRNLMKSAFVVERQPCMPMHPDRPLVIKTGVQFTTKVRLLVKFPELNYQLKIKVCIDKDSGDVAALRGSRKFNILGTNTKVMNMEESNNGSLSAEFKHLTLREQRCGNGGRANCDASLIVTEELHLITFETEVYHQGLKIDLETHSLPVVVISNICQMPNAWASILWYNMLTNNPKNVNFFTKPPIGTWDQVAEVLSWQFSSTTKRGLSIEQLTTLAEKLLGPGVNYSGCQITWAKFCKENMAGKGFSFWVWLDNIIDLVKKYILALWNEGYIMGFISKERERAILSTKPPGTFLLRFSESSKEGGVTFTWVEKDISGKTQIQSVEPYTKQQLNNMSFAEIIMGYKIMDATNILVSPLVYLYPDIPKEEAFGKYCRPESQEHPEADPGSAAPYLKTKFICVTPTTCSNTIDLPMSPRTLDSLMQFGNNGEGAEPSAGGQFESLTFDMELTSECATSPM
Protocol: as §1, §2, §3, §4

[7] = target: T7, STAT3 Signal transducer and activator of transcription 3 C712, C718 (P40763) (Homo sapiens, UniProt P40763)
T7 construct: endogenous in cells; host or cells: primary human T cells
T7 sequence (P40763 whole entry, one chain of several): as above
Protocol: as §1, §2, §3, §4

[8] = target: T8, TRANK1 TPR and ankyrin repeat-containing protein 1 C1319 (O15050) (Homo sapiens, UniProt O15050)
T8 construct: Soluble and particulate proteomic fractions were separated by ultracentrifugation; endogenous in cells; host or cells: primary human T cells
Protocol: as §1, §2, §3, §4

[9] = target: T9, TYK2 Non-receptor tyrosine-protein kinase TYK2 C838 (P29597) (Homo sapiens, UniProt P29597)
T9 construct: endogenous in cells; host or cells: primary human T cells
T9 sequence (P29597 whole entry): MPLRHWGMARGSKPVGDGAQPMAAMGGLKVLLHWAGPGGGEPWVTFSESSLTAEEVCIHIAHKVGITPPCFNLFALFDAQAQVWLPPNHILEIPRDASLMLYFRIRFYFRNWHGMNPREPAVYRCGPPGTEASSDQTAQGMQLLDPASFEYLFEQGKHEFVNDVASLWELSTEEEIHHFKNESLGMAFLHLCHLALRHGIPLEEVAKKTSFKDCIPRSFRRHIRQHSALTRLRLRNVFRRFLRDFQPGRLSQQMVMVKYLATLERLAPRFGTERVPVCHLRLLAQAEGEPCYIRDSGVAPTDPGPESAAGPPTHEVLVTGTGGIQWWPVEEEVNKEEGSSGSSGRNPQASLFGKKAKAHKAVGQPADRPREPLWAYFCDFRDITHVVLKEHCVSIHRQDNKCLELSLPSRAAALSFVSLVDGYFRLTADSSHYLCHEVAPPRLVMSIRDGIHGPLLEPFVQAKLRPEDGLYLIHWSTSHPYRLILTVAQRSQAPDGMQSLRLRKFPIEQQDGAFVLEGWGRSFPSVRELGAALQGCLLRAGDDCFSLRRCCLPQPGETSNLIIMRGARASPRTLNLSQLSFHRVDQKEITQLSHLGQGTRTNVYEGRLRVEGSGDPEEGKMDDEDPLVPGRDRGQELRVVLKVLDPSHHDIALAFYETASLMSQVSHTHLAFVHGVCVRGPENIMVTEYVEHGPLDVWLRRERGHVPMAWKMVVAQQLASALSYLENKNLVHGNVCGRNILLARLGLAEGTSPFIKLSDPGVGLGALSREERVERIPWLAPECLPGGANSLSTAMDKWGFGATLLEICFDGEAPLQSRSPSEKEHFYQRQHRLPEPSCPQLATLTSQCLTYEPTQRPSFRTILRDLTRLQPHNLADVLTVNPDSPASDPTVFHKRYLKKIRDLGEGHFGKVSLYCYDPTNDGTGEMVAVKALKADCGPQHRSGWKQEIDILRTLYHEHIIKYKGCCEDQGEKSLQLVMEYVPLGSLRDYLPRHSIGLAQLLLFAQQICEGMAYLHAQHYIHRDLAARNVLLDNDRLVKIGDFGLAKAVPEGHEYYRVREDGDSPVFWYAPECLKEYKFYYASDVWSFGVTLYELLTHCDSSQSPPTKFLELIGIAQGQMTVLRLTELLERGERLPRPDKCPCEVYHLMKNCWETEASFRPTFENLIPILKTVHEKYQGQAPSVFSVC
Protocol: as §1, §2, §3, §4

T1 sequence (P23458 whole entry): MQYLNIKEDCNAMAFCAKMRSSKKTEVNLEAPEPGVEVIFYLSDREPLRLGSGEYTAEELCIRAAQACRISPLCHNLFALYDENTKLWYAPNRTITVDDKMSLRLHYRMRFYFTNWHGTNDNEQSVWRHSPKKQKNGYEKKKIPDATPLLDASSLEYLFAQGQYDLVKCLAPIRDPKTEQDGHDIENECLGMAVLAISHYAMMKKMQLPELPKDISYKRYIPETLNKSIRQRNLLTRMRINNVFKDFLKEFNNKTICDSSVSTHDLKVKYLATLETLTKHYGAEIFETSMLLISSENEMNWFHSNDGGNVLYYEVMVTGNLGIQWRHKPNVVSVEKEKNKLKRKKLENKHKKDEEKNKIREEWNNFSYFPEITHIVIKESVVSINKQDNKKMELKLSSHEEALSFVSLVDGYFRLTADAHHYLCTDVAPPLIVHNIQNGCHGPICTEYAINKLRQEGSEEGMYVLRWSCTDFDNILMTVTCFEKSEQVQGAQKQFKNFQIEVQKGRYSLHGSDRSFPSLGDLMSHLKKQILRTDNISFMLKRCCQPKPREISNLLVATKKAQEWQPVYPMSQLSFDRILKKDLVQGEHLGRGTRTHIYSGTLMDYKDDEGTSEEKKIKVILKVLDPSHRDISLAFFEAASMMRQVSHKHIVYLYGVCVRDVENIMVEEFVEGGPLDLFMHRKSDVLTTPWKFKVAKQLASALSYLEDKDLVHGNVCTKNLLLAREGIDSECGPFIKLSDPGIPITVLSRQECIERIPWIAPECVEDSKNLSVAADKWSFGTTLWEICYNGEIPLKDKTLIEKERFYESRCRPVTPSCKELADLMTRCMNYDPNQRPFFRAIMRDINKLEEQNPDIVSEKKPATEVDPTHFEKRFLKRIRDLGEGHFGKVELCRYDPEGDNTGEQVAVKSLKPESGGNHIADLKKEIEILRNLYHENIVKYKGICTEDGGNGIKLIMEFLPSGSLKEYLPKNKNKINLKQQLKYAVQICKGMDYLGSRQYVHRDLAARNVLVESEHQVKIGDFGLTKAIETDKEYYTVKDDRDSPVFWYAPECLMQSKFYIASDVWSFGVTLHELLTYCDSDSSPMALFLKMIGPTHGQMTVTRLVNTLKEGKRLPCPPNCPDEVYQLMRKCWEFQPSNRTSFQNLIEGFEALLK

Row | Compound | Cysteine reactivity proteomic data ([1]; 100 μM) | Cysteine reactivity proteomic data ([1]; 500 μM) | Cysteine reactivity proteomic data [2] | Cysteine reactivity proteomic data [3]; 100 | Cysteine reactivity proteomic data ([4]; 100 μM) | Cysteine reactivity proteomic data ([4]; 500 μM) | Cysteine reactivity proteomic data ([5]; 100 μM) | Cysteine reactivity proteomic data ([5]; 500 μM) | Cysteine reactivity proteomic data ([6]; 100 μM) | Cysteine reactivity proteomic data ([6]; 500 μM) | Cysteine reactivity proteomic data ([7]; 100 μM) | Cysteine reactivity proteomic data ([7]; 500 μM) | Cysteine reactivity proteomic data [8]; 100 | Cysteine reactivity proteomic data ([9]; 100 μM) | Cysteine reactivity proteomic data ([9]; 500 μM) | Cysteine reactivity proteomic data ([3]; 500 μM) | Cysteine reactivity proteomic data ([8]; 500 μM)
1 | O=C(CCl)N1CCN(S(=O)(=O)c2ccc(-c3ccncc3)cc2)CC1 [Compound B9] | 18.7286 | 90.3525 | 72.19 | 71.33 | 26.69 | 90.3507 | 16.62 | 84.5074 | 42.3797 | 73.3713 | 64.9054 | 69.5373 | 82.88 | 78.9759 | 98.8468 | – | –
2 | C=CC(=O)N(Cc1cccc(Cl)c1Cl)c1ccc(Oc2ccccc2)c(C(F)(F)F)c1 [Compound K4] | – | 39.2015 | – | – | – | −24.3435 | – | 28.7525 | – | 13.6326 | – | 12.6621 | – | – | 22.4158 | 1.71 | 6.5
